Test system: MV-4-11 cells
Experiment: Gene expression microarray analysis (Affymetrix PrimeView) and GSEA
Assay type: cell-based, human
Set-up: RFU PODN (11730768_x_at) / Fold change /veh PODN (11730768_x_at) / RFU LINC00158 (11744669_a_at) / Fold change /veh LINC00158 (11744669_a_at) / RFU DUSP10 (11751237_a_at) / Fold change /veh DUSP10 (11751237_a_at) / RFU ID3 (11757404_x_at) / Fold change /veh ID3 (11757404_x_at) / RFU PLEKHG5 (11737974_s_at) / Fold change /veh PLEKHG5 (11737974_s_at) / RFU LRRC4B (11730491_at) / Fold change /veh LRRC4B (11730491_at) / RFU GIMAP4 (11747438_a_at) / Fold change /veh GIMAP4 (11747438_a_at) / RFU KRT8 (11758183_x_at) / Fold change /veh KRT8 (11758183_x_at) / RFU CNN1 (11734310_a_at) / Fold change /veh CNN1 (11734310_a_at) / RFU VPS37D (11726825_at) / Fold change /veh VPS37D (11726825_at) / RFU C10orf10 (11716522_x_at) / Fold change /veh C10orf10 (11716522_x_at) / RFU KIR2DL2 /// KIR2DL4 /// KIR2DL5A /// KIR2DL5B /// KIR2DS1 /// KIR2DS2 /// KIR2DS3 /// KIR2DS4 /// KIR3DL3 /// KIR3DL3 /// KIR3DS1 (11738374_at) / Fold change /veh KIR2DL2 /// KIR2DL4 /// KIR2DL5A /// KIR2DL5B /// KIR2DS1 /// KIR2DS2 /// KIR2DS3 /// KIR2DS4 /// KIR3DL3 /// KIR3DL3 /// KIR3DS1 (11738374_at) / RFU C1QL1 (11718748_at) / Fold change /veh C1QL1 (11718748_at) / RFU TMPRSS4 (11747572_a_at) / Fold change /veh TMPRSS4 (11747572_a_at) / RFU HAMP (11756126_x_at) / Fold change /veh HAMP (11756126_x_at) / RFU RNFT2 (11725882_a_at) / Fold change /veh RNFT2 (11725882_a_at) / RFU NR4A2 (11747474_a_at) / Fold change /veh NR4A2 (11747474_a_at) / RFU ABCC12 (11746883_a_at) / Fold change /veh ABCC12 (11746883_a_at) / RFU TMEM136 (11760407_x_at) / Fold change /veh TMEM136 (11760407_x_at) / RFU CLDN22 /// WWC2 (11732394_at) / Fold change /veh CLDN22 /// WWC2 (11732394_at) / RFU HLA-DPB1 (11760878_x_at) / Fold change /veh HLA-DPB1 (11760878_x_at) / RFU SPINT1 (11716480_a_at) / Fold change /veh SPINT1 (11716480_a_at) / RFU GAP43 (11754022_s_at) / Fold change /veh GAP43 (11754022_s_at) / RFU A4GNT (11735810_at) / Fold change /veh A4GNT (11735810_at) / RFU PRB3 (11715151_x_at) / Fold change /veh PRB3 (11715151_x_at) / RFU TUBB4B (11761932_at) / Fold change /veh TUBB4B (11761932_at) / RFU CAPN14 (11732068_a_at) / Fold change /veh CAPN14 (11732068_a_at) / RFU TMCC2 (11721928_a_at) / Fold change /veh TMCC2 (11721928_a_at) / RFU IRGQ (11745062_a_at) / Fold change /veh IRGQ (11745062_a_at) / RFU FAM174B (11720279_a_at) / Fold change /veh FAM174B (11720279_a_at) / RFU TMPRSS4 (11748680_a_at) / Fold change /veh TMPRSS4 (11748680_a_at) / RFU FAM212B (11763350_a_at) / Fold change /veh FAM212B (11763350_a_at) / RFU PLEKHG5 (11743358_a_at) / Fold change /veh PLEKHG5 (11743358_a_at) / RFU ZSCAN30 (11745921_a_at) / Fold change /veh ZSCAN30 (11745921_a_at) / RFU CMKLR1 (11741424_a_at) / Fold change /veh CMKLR1 (11741424_a_at) / RFU LOC101060620 /// MAPK8IP1 (11723275_at) / Fold change /veh LOC101060620 /// MAPK8IP1 (11723275_at) / RFU SPTSSB (11747773_x_at) / Fold change /veh SPTSSB (11747773_x_at) / RFU PRSS12 (11739890_at) / Fold change /veh PRSS12 (11739890_at) / RFU BIN1 (11741810_x_at) / Fold change /veh BIN1 (11741810_x_at) / RFU WNT11 (11732464_a_at) / Fold change /veh WNT11 (11732464_a_at) / RFU C10orf10 (11716521_a_at) / Fold change /veh C10orf10 (11716521_a_at) / RFU C5orf56 (11738089_at) / Fold change /veh C5orf56 (11738089_at) / RFU CYB561 (11721691_x_at) / Fold change /veh CYB561 (11721691_x_at) / RFU ANKRD19P (11752326_a_at) / Fold change /veh ANKRD19P (11752326_a_at) / RFU OR2T12 /// OR2T33 /// OR2T8 (11738714_s_at) / Fold change /veh OR2T12 /// OR2T33 /// OR2T8 (11738714_s_at) / RFU VCAN (11748164_a_at) / Fold change /veh VCAN (11748164_a_at) / RFU JSRP1 (11732532_at) / Fold change /veh JSRP1 (11732532_at) / RFU KRTAP10-11 (11738290_x_at) / Fold change /veh KRTAP10-11 (11738290_x_at) / RFU MYO3A (11730013_a_at) / Fold change /veh MYO3A (11730013_a_at) / RFU EBF3 (11725865_a_at) / Fold change /veh EBF3 (11725865_a_at) / RFU CAMK2N1 (11719241_x_at) / Fold change /veh CAMK2N1 (11719241_x_at) / RFU C5orf56 (11738088_a_at) / Fold change /veh C5orf56 (11738088_a_at) / RFU OLFML3 (11715873_a_at) / Fold change /veh OLFML3 (11715873_a_at) / RFU LOC100653217 /// NTM (11731650_a_at) / Fold change /veh LOC100653217 /// NTM (11731650_a_at) / RFU MAPK11 (11762145_a_at) / Fold change /veh MAPK11 (11762145_a_at) / RFU FIZ1 (11724087_x_at) / Fold change /veh FIZ1 (11724087_x_at) / RFU OASL (11726364_x_at) / Fold change /veh OASL (11726364_x_at) / RFU SOX15 (11748057_x_at) / Fold change /veh SOX15 (11748057_x_at) / RFU CD79A (11719716_a_at) / Fold change /veh CD79A (11719716_a_at) / RFU HIST1H1D (11736915_at) / Fold change /veh HIST1H1D (11736915_at) / RFU CASKIN2 (11723855_a_at) / Fold change /veh CASKIN2 (11723855_a_at) / RFU LOC730098 (11760151_x_at) / Fold change /veh LOC730098 (11760151_x_at) / RFU OR4N2 (11742367_at) / Fold change /veh OR4N2 (11742367_at) / RFU PRRT2 (11749266_a_at) / Fold change /veh PRRT2 (11749266_a_at) / RFU SNX32 (11753110_a_at) / Fold change /veh SNX32 (11753110_a_at) / RFU CDHR5 (11726645_a_at) / Fold change /veh CDHR5 (11726645_a_at) / RFU RCAN1 (11760418_a_at) / Fold change /veh RCAN1 (11760418_a_at) / RFU FAM167A (11723789_a_at) / Fold change /veh FAM167A (11723789_a_at) / RFU FAM26E (11764081_at) / Fold change /veh FAM26E (11764081_at) / RFU ISYNA1 (11749810_s_at) / Fold change /veh ISYNA1 (11749810_s_at) / RFU ACY1 (11761880_at) / Fold change /veh ACY1 (11761880_at) / RFU 11764098_at / Fold change /veh 11764098_at / RFU SAMD14 (11745864_x_at) / Fold change /veh SAMD14 (11745864_x_at) / RFU NPB (11741838_a_at) / Fold change /veh NPB (11741838_a_at) / RFU TMPRSS6 (11731388_a_at) / Fold change /veh TMPRSS6 (11731388_a_at) / RFU KRTAP10-2 (11738614_at) / Fold change /veh KRTAP10-2 (11738614_at) / RFU ARHGAP8 /// PRR5-ARHGAP8 (11727945_x_at) / Fold change /veh ARHGAP8 /// PRR5-ARHGAP8 (11727945_x_at) / RFU KRTAP5-7 /// NADSYN1 (11734609_at) / Fold change /veh KRTAP5-7 /// NADSYN1 (11734609_at) / RFU RASL12 (11751679_a_at) / Fold change /veh RASL12 (11751679_a_at) / RFU CDKN2B (11736163_a_at) / Fold change /veh CDKN2B (11736163_a_at) / RFU PRF1 (11729649_at) / Fold change /veh PRF1 (11729649_at) / RFU, ZNF638 /// ZNF638-IT1 / Fold change vs veh, ZNF638 /// ZNF638-IT1 / RFU, PANK3 / Fold change vs veh, PANK3 / RFU, SH3YL1 / Fold change vs veh, SH3YL1 / RFU, ZEB2 / Fold change vs veh, ZEB2 / RFU, NRIP1 / Fold change vs veh, NRIP1 / RFU, PTTG1IP / Fold change vs veh, PTTG1IP / RFU, CAPN2 / Fold change vs veh, CAPN2 / RFU, MED14 / Fold change vs veh, MED14 / RFU, SNORA58 / Fold change vs veh, SNORA58 / RFU, C1orf63 / Fold change vs veh, C1orf63 / RFU, LRRFIP1 / Fold change vs veh, LRRFIP1 / RFU, NDUFAF7 / Fold change vs veh, NDUFAF7 / RFU, SLC12A2 / Fold change vs veh, SLC12A2 / RFU, IBTK / Fold change vs veh, IBTK / RFU, ESF1 / Fold change vs veh, ESF1 / Fold change vs veh, TMEM50B / RFU, TAOK1 / Fold change vs veh, TAOK1 / RFU, ACBD3 / Fold change vs veh, ACBD3 / RFU, TMA16 / Fold change vs veh, TMA16 / RFU, RWDD3 / Fold change vs veh, RWDD3 / RFU, BCAT1 / Fold change vs veh, BCAT1 / RFU, EDEM3 / Fold change vs veh, EDEM3 / RFU, TMEM33 / Fold change vs veh, TMEM33 / RFU, WDR75 / Fold change vs veh, WDR75 / RFU, AHCTF1 / Fold change vs veh, AHCTF1 / RFU, TFRC / Fold change vs veh, TFRC / RFU, ZDHHC17 / Fold change vs veh, ZDHHC17 / RFU, NOM1 / Fold change vs veh, NOM1 / RFU, ARL8B / Fold change vs veh, ARL8B / RFU, ZBTB11 / Fold change vs veh, ZBTB11 / RFU, TAMM41 / Fold change vs veh, TAMM41 / RFU, KIAA1704 /// LOC100996395 / Fold change vs veh, KIAA1704 /// LOC100996395 / RFU, ING1 / Fold change vs veh, ING1 / RFU, TRMT61B / Fold change vs veh, TRMT61B / RFU, FUBP3 / Fold change vs veh, FUBP3 / RFU, TP53 / Fold change vs veh, TP53 / RFU, TNKS2 / Fold change vs veh, TNKS2 / RFU, ZFP14 / Fold change vs veh, ZFP14 / RFU, ACTR2 / Fold change vs veh, ACTR2 / RFU, PPP3R1 / Fold change vs veh, PPP3R1 / RFU, PIK3R1 / Fold change vs veh, PIK3R1 / RFU, HNRNPA1 / Fold change vs veh, HNRNPA1 / RFU, RNF170 / Fold change vs veh, RNF170 / RFU, ZNF28 / Fold change vs veh, ZNF28 / RFU, RNGTT / Fold change vs veh, RNGTT / RFU, OGT / Fold change vs veh, OGT / RFU, BRD1 / Fold change vs veh, BRD1 / RFU, MARS / Fold change vs veh, MARS / RFU, ZNF655 / Fold change vs veh, ZNF655 / RFU, FAHD1 / Fold change vs veh, FAHD1 / RFU, BDP1 / Fold change vs veh, BDP1 / RFU, LRRCC1 / Fold change vs veh, LRRCC1 / RFU, ARID1A / Fold change vs veh, ARID1A / RFU, ZNF146 / Fold change vs veh, ZNF146 / RFU, ZNF330 / Fold change vs veh, ZNF330 / RFU, GPN3 / Fold change vs veh, GPN3 / RFU, C9orf123 / Fold change vs veh, C9orf123 / RFU, N4BP2L2 / Fold change vs veh, N4BP2L2 / RFU, ARFIP1 / Fold change vs veh, ARFIP1 / RFU, FAM179B / Fold change vs veh, FAM179B / RFU, BCL10 / Fold change vs veh, BCL10 / RFU, UHRF1BP1L / Fold change vs veh, UHRF1BP1L / RFU, BET1 / Fold change vs veh, BET1 / RFU, CNOT2 / Fold change vs veh, CNOT2 / RFU, ZNF268 / Fold change vs veh, ZNF268 / Fold change vs veh, ZNF507 / RFU, DGCR2 / Fold change vs veh, DGCR2 / RFU, WDSUB1 / Fold change vs veh, WDSUB1 / Fold change vs veh, HSP90B1 /// MIR3652 / RFU, ADSS / Fold change vs veh, ADSS / RFU, GK / Fold change vs veh, GK / RFU, ZNF148 / Fold change vs veh, ZNF148 / RFU, TAF9 / Fold change vs veh, TAF9 / RFU, SLC1A5 / Fold change vs veh, SLC1A5 / RFU, SLMO2 / Fold change vs veh, SLMO2 / RFU, ABCC4 / Fold change vs veh, ABCC4 / RFU, LOC101060439 /// RAP1B / Fold change vs veh, LOC101060439 /// RAP1B / RFU, RFX7 / Fold change vs veh, RFX7 / RFU, GTPBP10 / Fold change vs veh, GTPBP10 / RFU, CNEP1R1 / Fold change vs veh, CNEP1R1 / RFU, BIVM-ERCC5 /// ERCC5 / Fold change vs veh, BIVM-ERCC5 /// ERCC5 / RFU, ILF3 / Fold change vs veh, ILF3 / RFU 11762660_at / Fold change /veh 11762660_at / RFU VCAN (11757783_s_at) / Fold change /veh VCAN (11757783_s_at) / RFU DDX43 (11728927_at) / Fold change /veh DDX43 (11728927_at) / RFU KRT8 (11758188_x_at) / Fold change /veh KRT8 (11758188_x_at) / RFU NKD1 (11759106_at) / Fold change /veh NKD1 (11759106_at) / RFU SRD5A1 (11742802_a_at) / Fold change /veh SRD5A1 (11742802_a_at) / RFU TPSAB1 /// TPSB2 (11721975_s_at) / Fold change /veh TPSAB1 /// TPSB2 (11721975_s_at) / RFU GSTM3 (11746129_a_at) / Fold change /veh GSTM3 (11746129_a_at) / RFU IL23R (11737362_x_at) / Fold change /veh IL23R (11737362_x_at) / RFU TMEM51 (11727254_a_at) / Fold change /veh TMEM51 (11727254_a_at) / RFU PIWIL2 (11732686_x_at) / Fold change /veh PIWIL2 (11732686_x_at) / RFU ORM1 (11744905_x_at) / Fold change /veh ORM1 (11744905_x_at) / RFU CCDC152 (11743942_at) / Fold change /veh CCDC152 (11743942_at) / RFU ECM1 (11717891_a_at) / Fold change /veh ECM1 (11717891_a_at) / RFU IL23R (11748794_a_at) / Fold change /veh IL23R (11748794_a_at) / RFU TNFAIP8L3 (11732012_x_at) / Fold change /veh TNFAIP8L3 (11732012_x_at) / RFU MBOAT4 (11741988_at) / Fold change /veh MBOAT4 (11741988_at) / RFU 11764193_at / Fold change /veh 11764193_at / RFU TMEM53 (11763286_at) / Fold change /veh TMEM53 (11763286_at) / RFU MAGEB2 (11727129_at) / Fold change /veh MAGEB2 (11727129_at) / RFU TMEM200A (11744735_a_at) / Fold change /veh TMEM200A (11744735_a_at) / RFU CCDC152 (11751479_a_at) / Fold change /veh CCDC152 (11751479_a_at) / RFU FAM211A (11726209_a_at) / Fold change /veh FAM211A (11726209_a_at) / RFU RGS16 (11746705_a_at) / Fold change /veh RGS16 (11746705_a_at) / RFU VCAN (11755009_s_at) / Fold change /veh VCAN (11755009_s_at) / RFU RHOB (11743442_s_at) / Fold change /veh RHOB (11743442_s_at) / RFU RGS16 (11720943_a_at) / Fold change /veh RGS16 (11720943_a_at) / RFU RGS16 (11720944_at) / Fold change /veh RGS16 (11720944_at) / RFU, VPS4B / Fold change vs veh, VPS4B / RFU, CREB1 / Fold change vs veh, CREB1 / RFU, DNAJC13 / Fold change vs veh, DNAJC13 / RFU, GNAQ / Fold change vs veh, GNAQ / RFU, CDK5R1 / Fold change vs veh, CDK5R1 / RFU, ZRANB3 / Fold change vs veh, ZRANB3 / RFU, CUL4A / Fold change vs veh, CUL4A / RFU, CCNY / Fold change vs veh, CCNY / RFU, UFL1 / Fold change vs veh, UFL1 / RFU, COG3 / Fold change vs veh, COG3 / RFU, DIAPH2 / Fold change vs veh, DIAPH2 / RFU, SKA2 / Fold change vs veh, SKA2 / RFU, AFF3 / Fold change vs veh, AFF3 / RFU, LMF1 / Fold change vs veh, LMF1 / RFU, IPO11 / Fold change vs veh, IPO11 / RFU, DFFB / Fold change vs veh, DFFB / RFU, FOXP1 / Fold change vs veh, FOXP1 / RFU, CARD8 / Fold change vs veh, CARD8 / RFU, STRN3 / Fold change vs veh, STRN3 / RFU, ADK / Fold change vs veh, ADK / RFU, RASSF2 / Fold change vs veh, RASSF2 / RFU, WIPF1 / Fold change vs veh, WIPF1 / RFU, LARP1B / Fold change vs veh, LARP1B / RFU, RASA1 / Fold change vs veh, RASA1 / RFU, RB1 / Fold change vs veh, RB1 / RFU, PPFIA1 / Fold change vs veh, PPFIA1 / RFU, MAT2A / Fold change vs veh, MAT2A / RFU, CCT5 / Fold change vs veh, CCT5 / RFU, WDR92 / Fold change vs veh, WDR92 / RFU, CUX1 / Fold change vs veh, CUX1 / RFU, TTC7A / Fold change vs veh, TTC7A / RFU, TMEM135 / Fold change vs veh, TMEM135 / RFU, DEPTOR / Fold change vs veh, DEPTOR / RFU, CPM / Fold change vs veh, CPM / RFU, DNAJB6 / Fold change vs veh, DNAJB6 / RFU, CACNA2D3 / Fold change vs veh, CACNA2D3 / RFU, DTX4 / Fold change vs veh, DTX4 / RFU, TFCP2 / Fold change vs veh, TFCP2 / RFU, GMCL1 /// GMCL1P1 / Fold change vs veh, GMCL1 /// GMCL1P1 / RFU, AEBP2 / Fold change vs veh, AEBP2 / RFU, SNHG1 /// SNORD22 /// SNORD25 /// SNORD26 /// SNORD27 /// SNORD28 /// SNORD29 /// SNORD31 / Fold change vs veh, SNHG1 /// SNORD22 /// SNORD25 /// SNORD26 /// SNORD27 /// SNORD28 /// SNORD29 /// SNORD31 / Fold change (Aza/veh), C12orf56 (ProbeSet 11735607_a_at) / Fold change (ACY-1035/veh), C12orf56 (ProbeSet 11735607_a_at) / Fold change (Aza/veh), FGFR1OP (ProbeSet 11751329_s_at) / Fold change (ACY-1035/veh), FGFR1OP (ProbeSet 11751329_s_at) / Fold change (Aza/veh), VPS36 (ProbeSet 11739960_a_at) / Fold change (ACY-1035/veh), VPS36 (ProbeSet 11739960_a_at) / RFU SYPL1 (11715823_x_at) / Fold change /veh SYPL1 (11715823_x_at) / RFU IGFBP7 (11715501_s_at) / Fold change /veh IGFBP7 (11715501_s_at) / RFU REEP3 (11722064_at) / Fold change /veh REEP3 (11722064_at) / RFU IGLL1 (11728026_x_at) / Fold change /veh IGLL1 (11728026_x_at): dose or concentration left out as unconfirmed
Conditions: ProbeSet 11719185_x_at; LIST B

Compound: Nc1ccc(-c2cccs2)cc1NC(=O)c1ccc2c(c1)cc(C1CC1)n2CCN1CCOCC1 [ACY-1035]
- Fold change vs veh, N4BP2L2: 1.03

— paper PMC5218480 (PLoS ONE, 2017)
